Reference: patent US20040254162A1, “Oxazolidinone derivatives as antimicrobials” (priority 2001, published 2004)
Values after ≈ are worked out from the molar mass of the structure shown. Values joined by “and” are separate entries in the source; they are usually repeats but may differ in a detail not shown here. Equal entries are not always repeated. Where two headings read alike, the source gives them in different places.

Tests used:
Type in all cases: cell-based
[1] = test system: P. acnes; assay: Agar dilution MIC, anaerobes; settings: single isolates, anaerobic agar dilution; for MIC: Cutibacterium acnes, read-out: MIC P. acnes
[2] = test system: Prevotella bivia; assay: Agar dilution MIC, anaerobes; settings: single isolate, anaerobic agar dilution; for MIC: Prevotella bivia, read-out: MIC Prevotella bivia
[3] = test system: Eubacterium leutum; assay: Agar dilution MIC, anaerobes; settings: single isolates, anaerobic agar dilution; for MIC: Eubacterium, read-out: MIC Eubacterium leutum
[4] = test system: Bacteroides fragilis; assay: Agar dilution MIC, anaerobes; settings: single isolates, anaerobic agar dilution; for MIC: Bacteroides fragilis, read-out: MIC Bacteroides fragilis
[5] = test system: Peptostreptococcus prevotii; assay: Agar dilution MIC, anaerobes; settings: single isolates, anaerobic agar dilution; for MIC: Anaerococcus prevotii, read-out: MIC Peptostreptococcus prevotii
[6] = test system: Porphyromonas asaccharolytica; assay: Agar dilution MIC, anaerobes; settings: single isolate, anaerobic agar dilution; for MIC: Porphyromonas asaccharolytica, read-out: MIC Porphyromonas asaccharolytica
[7] = test system: Clostridium difficile; assay: Agar dilution MIC, anaerobes; settings: single isolates, anaerobic agar dilution; for MIC: Clostridioides difficile, read-out: MIC Clostridium difficile
[8] = test system: Clostridium camis; assay: Agar dilution MIC, anaerobes; settings: single isolates, anaerobic agar dilution; for MIC: Clostridium, read-out: MIC Clostridium camis
[9] = test system: Prevotella (Bacteroides) disiens; assay: Agar dilution MIC, anaerobes; settings: single isolates, anaerobic agar dilution; for MIC: read-out: MIC Prevotella (Bacteroides) disiens
[10] = test system: Fusobacterium nucleatum; assay: Agar dilution MIC, anaerobes; settings: single isolates, anaerobic agar dilution; for MIC: Fusobacterium nucleatum, read-out: MIC Fusobacterium nucleatum
[11] = test system: Fusobacterium necrogenes; assay: Agar dilution MIC, anaerobes; settings: single isolate, anaerobic agar dilution; for MIC: Fusobacterium necrogenes, read-out: MIC Fusobacterium necrogenes
[12] = test system: anaerobic bacteria; assay: Agar dilution method for anaerobic bacteria, summary
[13] = test system: Clostridium perfringens; assay: microbe, parasite or virus in culture
[14] = test system: Porphyromonas gingivalis; assay: Agar dilution MIC, anaerobes; settings: single isolate, anaerobic agar dilution; for MIC: Porphyromonas gingivalis, read-out: MIC Porphyromonas gingivalis
[15] = test system: Prevotella intermedia; assay: Agar dilution MIC, anaerobes; settings: single isolates, anaerobic agar dilution; for MIC: Prevotella intermedia, read-out: MIC Prevotella intermedia
[16] = test system: Peptostreptococcus tetradius; assay: Agar dilution MIC, anaerobes; settings: single isolates, anaerobic agar dilution; for MIC: Anaerococcus tetradius, read-out: MIC Peptostreptococcus tetradius
[17] = test system: Fusobacterium montiferum; assay: Agar dilution MIC, anaerobes; settings: single isolates, anaerobic agar dilution; for MIC: Fusobacterium, read-out: MIC Fusobacterium montiferum
[18] = test system: Peptostreptococcus micros; assay: Agar dilution MIC, anaerobes; settings: Parvimonas micra, single isolates, anaerobic agar dilution; read-out: MIC Peptostreptococcus micros
[19] = test system: Fusobacterium varium; assay: Agar dilution MIC, anaerobes; settings: single isolates, anaerobic agar dilution
[20] = test system: Prevotella melaninogenica; assay: Agar dilution MIC, anaerobes; settings: single isolates, anaerobic agar dilution
[21] = test system: Peptostreptococcus asaccharolyticus; assay: Agar dilution MIC, anaerobes; settings: single isolates, anaerobic agar dilution
[22] = anaerobes, Wilkins Chalgren agar, 48 hour

COc1c(N2CCNC(C)C2)c(F)cc2c(=O)c(C(=O)O)cn(C3CC3)c12 (stereo not shown) [Gatifloxacin]
MIC [1]: 0.25 µg/mL (≈ 0.666 µM) | MIC P. acnes [1]: 0.125 µg/mL (≈ 0.333 µM) | MIC [2]: 2 µg/mL (≈ 5.33 µM) | MIC [3]: 0.25 µg/mL (≈ 0.666 µM) | MIC Eubacterium leutum [3]: 0.5 µg/mL (≈ 1.33 µM) | MIC [4]: 1 µg/mL (≈ 2.66 µM) | MIC [5]: 0.5 µg/mL (≈ 1.33 µM) | MIC Peptostreptococcus prevotii [5]: 1 µg/mL (≈ 2.66 µM) | MIC [6]: 0.25 µg/mL (≈ 0.666 µM) | MIC [7]: 1 µg/mL (≈ 2.66 µM) | MIC Clostridium difficile [7]: 2 µg/mL (≈ 5.33 µM) | MIC [8]: 0.25 µg/mL (≈ 0.666 µM) | MIC [9]: 1 µg/mL (≈ 2.66 µM) | MIC [10]: 0.25 µg/mL (≈ 0.666 µM) | MIC Fusobacterium nucleatum [10]: 0.5 µg/mL (≈ 1.33 µM) | MIC [11]: 0.5 µg/mL (≈ 1.33 µM) | Geometric Mean ([12]; anaerobes): 0.659 µg/mL | MIC Range ([12]; anaerobes): 0.06 to 32 µg/mL | MIC50 ([12]; anaerobes, Wilkins Chalgren agar, 48 hour, read-out: MIC50): 0.5 µg/mL (≈ 1.33 µM) | MIC90 ([12]; anaerobes, Wilkins Chalgren agar, 48 hour, read-out: MIC90): 2 µg/mL (≈ 5.33 µM) | MIC ([13]; Clostridium perfringens, read-out: MIC Clostridium perfringens, single isolates, anaerobic agar dilution): 1 µg/mL (≈ 2.66 µM) | MIC [14]: 0.06 µg/mL (≈ 0.16 µM) | MIC [15]: 0.25 µg/mL (≈ 0.666 µM) | MIC [16]: 1 µg/mL (≈ 2.66 µM) | MIC Peptostreptococcus tetradius [16]: 0.5 µg/mL (≈ 1.33 µM) | MIC [17]: 0.25 µg/mL (≈ 0.666 µM) | MIC Fusobacterium montiferum [17]: 0.5 µg/mL (≈ 1.33 µM)

C[C@@H](O)[C@H]1C(=O)N2C(C(=O)O)=C(SCCN=CN)C[C@H]12 [Imipenem]
MIC [1]: ≤ 0.016 µg/mL | MIC [2]: 0.03 µg/mL (≈ 0.1 µM) | MIC [18]: 0.03 µg/mL (≈ 0.1 µM) | MIC [3]: 0.25 µg/mL (≈ 0.835 µM) | MIC Eubacterium leutum [3]: 0.5 µg/mL (≈ 1.67 µM) | MIC [5]: ≤ 0.016 µg/mL | MIC ([19]; Fusobacterium varium, read-out: MIC Fusobacterium varium): 0.5 µg/mL (≈ 1.67 µM) | MIC Fusobacterium varium [19]: 1 µg/mL (≈ 3.34 µM) | MIC [6]: 0.03 µg/mL (≈ 0.1 µM) | MIC [7]: 4 µg/mL (≈ 13.4 µM) | MIC [8]: 0.06 µg/mL (≈ 0.2 µM) | MIC ([20]; Prevotella melaninogenica, read-out: MIC Prevotella melaninogenica): ≤ 0.016 µg/mL | MIC [10]: ≤ 0.016 µg/mL | MIC [11]: 0.25 µg/mL (≈ 0.835 µM) | MIC50 ([12]; 48 h): 0.064 µg/mL (≈ 0.214 µM) | MIC90 ([12]; 48 h): 1 µg/mL (≈ 3.34 µM) | Geometric Mean ([12]; anaerobes): 0.084 µg/mL | MIC Range ([12]; anaerobes): 0.008 to 4 µg/mL | MIC [14]: ≤ 0.016 µg/mL | MIC [15]: ≤ 0.016 µg/mL | MIC [16]: 0.03 µg/mL (≈ 0.1 µM)

COc1c(N2C[C@@H]3CCCN[C@@H]3C2)c(F)cc2c(=O)c(C(=O)O)cn(C3CC3)c12 [Moxifloxacin]
MIC [1]: 0.25 µg/mL (≈ 0.623 µM) | MIC P. acnes [1]: 0.125 µg/mL (≈ 0.311 µM) | MIC [3]: 0.5 µg/mL (≈ 1.25 µM) | MIC [4]: 0.25 µg/mL (≈ 0.623 µM) | MIC Bacteroides fragilis [4]: 0.5 µg/mL (≈ 1.25 µM) | MIC [5]: 0.25 µg/mL (≈ 0.623 µM) | MIC [6]: 0.5 µg/mL (≈ 1.25 µM) | MIC [8]: 0.25 µg/mL (≈ 0.623 µM) | MIC Prevotella (Bacteroides) disiens [9]: 0.5 µg/mL (≈ 1.25 µM) | MIC [9]: 0.25 µg/mL (≈ 0.623 µM) | MIC ([21]; Peptoniphilus asaccharolyticus): 0.125 µg/mL (≈ 0.311 µM) | MIC Peptostreptococcus asaccharolyticus [21]: 0.25 µg/mL (≈ 0.623 µM) | MIC [10]: 0.125 µg/mL (≈ 0.311 µM) | MIC Fusobacterium nucleatum [10]: 0.25 µg/mL (≈ 0.623 µM) | MIC [11]: 1 µg/mL (≈ 2.49 µM) | MIC [14]: 0.03 µg/mL (≈ 0.0747 µM) | MIC [15]: 0.5 µg/mL (≈ 1.25 µM) | MIC [16]: 0.5 µg/mL (≈ 1.25 µM) | MIC [17]: 0.25 µg/mL (≈ 0.623 µM) | MIC Fusobacterium montiferum [17]: 0.5 µg/mL (≈ 1.25 µM)

Teicoplanin
MIC P. acnes [1]: 0.25 µg/mL | MIC Prevotella bivia [2]: 1 µg/mL | MIC Bacteroides fragilis [4]: >16 µg/mL | MIC Fusobacterium varium [19]: >16 µg/mL | MIC Porphyromonas asaccharolytica [6]: 0.125 µg/mL | MIC Clostridium difficile [7]: 0.25 µg/mL | MIC Clostridium camis [8]: <=.06 μg/ml | MIC Prevotella melaninogenica [20]: 2 µg/mL and 4 µg/mL | MIC Prevotella (Bacteroides) disiens [9]: 16 µg/mL and >16 µg/mL | MIC Peptostreptococcus asaccharolyticus [21]: 0.125 µg/mL | MIC Fusobacterium nucleatum [10]: >16 µg/mL | MIC Fusobacterium necrogenes [11]: >16 µg/mL | Geometric Mean ([12]; anaerobes): 2.04 µg/mL | MIC Range ([12]; anaerobes): 0.03 to 32 µg/mL | MIC50 [12, 22]: 2 µg/mL | MIC90 [12, 22]: 32 µg/mL | MIC Clostridium perfringens ([13]; single isolates, anaerobic agar dilution): <=.06 μg/ml | MIC Porphyromonas gingivalis [14]: <=.06 μg/ml | MIC Prevotella intermedia [15]: 0.5 µg/mL | MIC Fusobacterium montiferum [17]: >16 µg/mL
